Experimental data reported in ChEMBL document CHEMBL4229379, “Synthesis and structure-activity relationship of novel bisindole amidines active against MDR Gram-positive and Gram-negative bacteria” (Eur J Med Chem, 2018).
In brackets after ≈: the same amount, converted by molar mass.

Assays:
Enterococcus faecalis [1] = assay: Antibacterial activity against vancomycin-resistant Enterococcus faecalis ATCC 51299 after 18 hrs by CLSI broth microdilution method; assay type: functional; settings: ATCC 51299, 18 h
Enterococcus faecium [2] = assay: Antibacterial activity against vancomycin-sensitive Enterococcus faecium 12-3 after 18 hrs by CLSI broth microdilution method; assay type: functional; settings: 12-3, 18 h
Klebsiella pneumoniae [3] = assay: Antibacterial activity against new delhi metallo-beta-lactamase-1 harboring Klebsiella pneumoniae ATCC BAA-2146 after 18 hrs by CLSI broth microdilution method; assay type: functional; settings: ATCC BAA-2146, 18 h
Citrobacter freundii = assay: Antibacterial activity against Citrobacter freundii ATCC 43864 after 18 hrs by CLSI broth microdilution method; assay type: functional; settings: ATCC 43864, 18 h
Staphylococcus aureus [4] = assay: Antibacterial activity against methicillin-resistant Staphylococcus aureus 12-33 after 18 hrs by CLSI broth microdilution method; assay type: functional; settings: 12-33, 18 h
Pseudomonas aeruginosa [5] = assay: Antibacterial activity against Pseudomonas aeruginosa 12-16 after 18 hrs by CLSI broth microdilution method; assay type: functional; settings: 12-16, 18 h
Providencia rettgeri = assay: Antibacterial activity against Providencia rettgeri ATCC 31052 after 18 hrs by CLSI broth microdilution method; assay type: functional; settings: ATCC 31052, 18 h
[6] = system: Acinetobacter calcoaceticus; assay: Antibacterial activity against Acinetobacter calcoaceticus ATCC 19606 after 18 hrs by CLSI broth microdilution method; assay type: functional; settings: ATCC 19606, 18 h
Staphylococcus aureus [7] = assay: Antibacterial activity against methicillin-sensitive Staphylococcus aureus 15 after 18 hrs by CLSI broth microdilution method; assay type: functional; settings: Staphylococcus aureus, 15, 18 h
Serratia marcescens = assay: Antibacterial activity against Serratia marcescens ATCC 21074 after 18 hrs by CLSI broth microdilution method; assay type: functional; settings: ATCC 21074, 18 h
Proteus mirabilis = assay: Antibacterial activity against Proteus mirabilis 12-6 after 18 hrs by CLSI broth microdilution method; assay type: functional; settings: 12-6, 18 h
[8] = system: Stenotrophomonas maltophilia; assay: Antibacterial activity against Stenotrophomonas maltophilia ATCC 13636 after 18 hrs by CLSI broth microdilution method; assay type: functional; settings: ATCC 13636, 18 h
Klebsiella pneumoniae [9] = assay: Antibacterial activity against extended-spectrum beta-lactamase deficient Klebsiella pneumoniae 7 after 18 hrs by CLSI broth microdilution method; assay type: functional; settings: Klebsiella pneumoniae, 7, 18 h
[10] = Cytotoxicity against HEK293T cells assessed as reduction in cell viability after 48 hrs by MTS assay; assay type: cell-based, HEK-293T; settings: human
Enterococcus faecium [11] = assay: Antibacterial activity against vancomycin-resistant Enterococcus faecium 12-1 after 18 hrs by CLSI broth microdilution method; assay type: functional; settings: 12-1, 18 h
Escherichia coli [12] = assay: Antibacterial activity against extended-spectrum beta-lactamase deficient Escherichia coli 1515 after 18 hrs by CLSI broth microdilution method; assay type: functional; settings: Escherichia coli, 1515, 18 h
Enterobacter cloacae = assay: Antibacterial activity against Enterobacter cloacae ATCC 43560 after 18 hrs by CLSI broth microdilution method; assay type: functional; settings: ATCC 43560, 18 h
Klebsiella aerogenes = assay: Antibacterial activity against Enterobacter aerogenes ATCC 13048 after 18 hrs by CLSI broth microdilution method; assay type: functional; settings: ATCC 13048, 18 h
Escherichia coli [13] = assay: Antibacterial activity against extended-spectrum beta-lactamase harboring Escherichia coli 12-15 after 18 hrs by CLSI broth microdilution method; assay type: functional; settings: 12-15, 18 h
Staphylococcus aureus [14] = assay: Antibacterial activity against methicillin-sensitive Staphylococcus aureus ATCC 29213 after 18 hrs by CLSI broth microdilution method; assay type: functional; settings: ATCC 29213, 18 h
Klebsiella pneumoniae [15] = assay: Antibacterial activity against extended-spectrum beta-lactamase deficient Klebsiella pneumoniae 12-4 after 18 hrs by CLSI broth microdilution method; assay type: functional; settings: 12-4, 18 h
Escherichia coli [16] = assay: Antibacterial activity against extended-spectrum beta-lactamase deficient Escherichia coli ATCC 25922 after 18 hrs by CLSI broth microdilution method; assay type: functional; settings: ATCC 25922, 18 h
[17] = system: Staphylococcus epidermidis; assay: Antibacterial activity against methicillin-sensitive Staphylococcus epidermidis ATCC 12228 after 18 hrs by CLSI broth microdilution method; assay type: functional; settings: ATCC 12228, 18 h
Enterococcus faecalis [18] = assay: Antibacterial activity against vancomycin-sensitive Enterococcus faecalis ATCC 29212 after 18 hrs by CLSI broth microdilution method; assay type: functional; settings: ATCC 29212, 18 h
Pseudomonas aeruginosa [19] = assay: Antibacterial activity against Pseudomonas aeruginosa PAO1 after 18 hrs by CLSI broth microdilution method; assay type: functional; settings: PAO1, 18 h
Escherichia coli [20] = assay: Antibacterial activity against extended-spectrum beta-lactamase deficient Escherichia coli 12-14 after 18 hrs by CLSI broth microdilution method; assay type: functional; settings: 12-14, 18 h
Enterococcus faecalis [21] = assay: Antibacterial activity against vancomycin-resistant Enterococcus faecalis 09-9 after 18 hrs by CLSI broth microdilution method; assay type: functional; settings: 09-9, 18 h
Enterococcus faecium [22] = assay: Antibacterial activity against vancomycin-resistant Enterococcus faecium ATCC 700221 after 18 hrs by CLSI broth microdilution method; assay type: functional; settings: ATCC 700221, 18 h
[23] = system: Staphylococcus epidermidis; assay: Antibacterial activity against methicillin-resistant Staphylococcus epidermidis 12-8 after 18 hrs by CLSI broth microdilution method; assay type: functional; settings: 12-8, 18 h
Pseudomonas aeruginosa [24] = assay: Antibacterial activity against Pseudomonas aeruginosa ATCC 27853 after 18 hrs by CLSI broth microdilution method; assay type: functional; settings: ATCC 27853, 18 h
Staphylococcus aureus [25] = assay: Antibacterial activity against methicillin-resistant Staphylococcus aureus ATCC 33591 after 18 hrs by CLSI broth microdilution method; assay type: functional; settings: ATCC 33591, 18 h
Enterococcus faecalis [26] = assay: Antibacterial activity against vancomycin-sensitive Enterococcus faecalis 12-5 after 18 hrs by CLSI broth microdilution method; assay type: functional; settings: 12-5, 18 h
Proteus vulgaris = assay: Antibacterial activity against Proteus vulgaris ATCC 29905 after 18 hrs by CLSI broth microdilution method; assay type: functional; settings: ATCC 29905, 18 h
Klebsiella pneumoniae [27] = assay: Antibacterial activity against extended-spectrum beta-lactamase harboring Klebsiella pneumoniae ATCC 700603 after 18 hrs by CLSI broth microdilution method; assay type: functional; settings: Klebsiella pneumoniae, 700603, 18 h
Staphylococcus aureus [28] = assay: Antibacterial activity against methicillin-sensitive Staphylococcus aureus 12-28 after 18 hrs by CLSI broth microdilution method; assay type: functional; settings: 12-28, 18 h
Klebsiella pneumoniae [29] = assay: Antibacterial activity against extended-spectrum beta-lactamase harboring Klebsiella pneumoniae 12-8 after 18 hrs by CLSI broth microdilution method; assay type: functional; settings: 12-8, 18 h
[30] = system: Staphylococcus epidermidis; assay: Antibacterial activity against methicillin-sensitive Staphylococcus epidermidis 12-6 after 18 hrs by CLSI broth microdilution method; assay type: functional; settings: 12-6, 18 h

Compound	MIC (Enterococcus faecalis [1]) [µg/mL]	MIC (Enterococcus faecium [2]) [µg/mL]	MIC (Klebsiella pneumoniae [3]) [µg/mL]	MIC (Citrobacter freundii) [µg/mL]	MIC (Staphylococcus aureus [4]) [µg/mL]	MIC (Pseudomonas aeruginosa [5]) [µg/mL]	MIC (Providencia rettgeri) [µg/mL]	MIC [6] [µg/mL]	MIC (Staphylococcus aureus [7]) [µg/mL]	MIC (Serratia marcescens) [µg/mL]	MIC (Proteus mirabilis) [µg/mL]	MIC [8] [µg/mL]	MIC (Klebsiella pneumoniae [9]) [µg/mL]	CC50 at 48 h [10] [µg/mL]	MIC (Enterococcus faecium [11]) [µg/mL]	MIC (Escherichia coli [12]) [µg/mL]	MIC (Enterobacter cloacae) [µg/mL]	MIC (Klebsiella aerogenes) [µg/mL]	MIC (Escherichia coli [13]) [µg/mL]	MIC (Staphylococcus aureus [14]) [µg/mL]	further results
CN(C)C(=N)c1ccc2cc(-c3cnc(-c4cc5ccc(C(=N)N(C)C)cc5[nH]4)cn3)[nH]c2c1	8 (≈ 17.8 µM)	4 (≈ 8.88 µM)	16 (≈ 35.5 µM)	8 (≈ 17.8 µM)	4 (≈ 8.88 µM)	> 128	16 (≈ 35.5 µM)	32 (≈ 71 µM)	1 (≈ 2.22 µM)	128 (≈ 284 µM)	64 (≈ 142 µM)	32 (≈ 71 µM)	16 (≈ 35.5 µM)	13 (≈ 28.8 µM)	2 (≈ 4.44 µM)	4 (≈ 8.88 µM)	8 (≈ 17.8 µM)	16 (≈ 35.5 µM)	16 (≈ 35.5 µM)	1 (≈ 2.22 µM)	MIC (Klebsiella pneumoniae [15]): 16 µg/mL (≈ 35.5 µM); MIC (Escherichia coli [16]): 4 µg/mL (≈ 8.88 µM); MIC [17]: 0.5 µg/mL (≈ 1.11 µM); MIC (Enterococcus faecalis [18]): 4 µg/mL (≈ 8.88 µM); MIC (Pseudomonas aeruginosa [19]): > 128 µg/mL; MIC (Escherichia coli [20]): 4 µg/mL (≈ 8.88 µM); MIC (Enterococcus faecalis [21]): 4 µg/mL (≈ 8.88 µM); MIC (Enterococcus faecium [22]): 4 µg/mL (≈ 8.88 µM); MIC [23]: 1 µg/mL (≈ 2.22 µM); MIC (Pseudomonas aeruginosa [24]): 128 µg/mL (≈ 284 µM); MIC (Staphylococcus aureus [25]): 1 µg/mL (≈ 2.22 µM); MIC (Enterococcus faecalis [26]): 8 µg/mL (≈ 17.8 µM); MIC (Proteus vulgaris): 16 µg/mL (≈ 35.5 µM); MIC (Klebsiella pneumoniae [27]): 64 µg/mL (≈ 142 µM); MIC (Staphylococcus aureus [28]): 1 µg/mL (≈ 2.22 µM); MIC (Klebsiella pneumoniae [29]): 16 µg/mL (≈ 35.5 µM); MIC [30]: 4 µg/mL (≈ 8.88 µM)
CC(C)NC(=N)c1ccc2cc(-c3ccc(-c4cc5ccc(C(=N)NC(C)C)cc5[nH]4)cc3)[nH]c2c1	0.25 (≈ 0.525 µM)	0.25 (≈ 0.525 µM)	4 (≈ 8.39 µM)	2 (≈ 4.2 µM)	0.125 (≈ 0.262 µM)	8 (≈ 16.8 µM)	4 (≈ 8.39 µM)	16 (≈ 33.6 µM)	0.125 (≈ 0.262 µM)	8 (≈ 16.8 µM)	16 (≈ 33.6 µM)	4 (≈ 8.39 µM)	2 (≈ 4.2 µM)	12.3 (≈ 25.8 µM)	0.25 (≈ 0.525 µM)	4 (≈ 8.39 µM)	4 (≈ 8.39 µM)	4 (≈ 8.39 µM)	2 (≈ 4.2 µM)	0.125 (≈ 0.262 µM)	MIC (Klebsiella pneumoniae [15]): 2 µg/mL (≈ 4.2 µM); MIC (Escherichia coli [16]): 2 µg/mL (≈ 4.2 µM); MIC [17]: 0.125 µg/mL (≈ 0.262 µM); MIC (Enterococcus faecalis [18]): 0.25 µg/mL (≈ 0.525 µM); MIC (Pseudomonas aeruginosa [19]): 4 µg/mL (≈ 8.39 µM); MIC (Escherichia coli [20]): 4 µg/mL (≈ 8.39 µM); MIC (Enterococcus faecalis [21]): 0.25 µg/mL (≈ 0.525 µM); MIC (Enterococcus faecium [22]): 0.25 µg/mL (≈ 0.525 µM); MIC [23]: 0.125 µg/mL (≈ 0.262 µM); MIC (Pseudomonas aeruginosa [24]): 2 µg/mL (≈ 4.2 µM); MIC (Staphylococcus aureus [25]): 0.125 µg/mL (≈ 0.262 µM); MIC (Enterococcus faecalis [26]): 0.5 µg/mL (≈ 1.05 µM); MIC (Proteus vulgaris): 4 µg/mL (≈ 8.39 µM); MIC (Klebsiella pneumoniae [27]): 8 µg/mL (≈ 16.8 µM); MIC (Staphylococcus aureus [28]): 0.125 µg/mL (≈ 0.262 µM); MIC (Klebsiella pneumoniae [29]): 2 µg/mL (≈ 4.2 µM); MIC [30]: 0.125 µg/mL (≈ 0.262 µM)
